Drawing on US12435068B2, “Anthelmintic compounds” (Elanco Animal Health GmBh, priority 2018, dated 2025), this text covers EC50 for one compound.

≈ marks a conversion by molar mass, not a printed value.

Test [1] relates to Dirofilaria immitis larvae. Kind of test: In Vitro Assay 3: Dirofilaria immitis (DIROIM L4) larval motility. Format: cell-based. The following applies: 72 h, read-out: EC50 ppm.
Test [2] concerns Dirofilaria immitis microfilariae. Kind of test: In Vitro Assay 2: Dirofilaria immitis microfilariae (DIROIM L1) motility. It is filed as cell-based. The settings on record: 72 h, read-out: EC50 ppm.
The target of another test is C. elegans Slo-1a (Caenorhabditis elegans, UniProt Q95V25).
C. elegans Slo-1a, sequence (Q95V25 whole entry): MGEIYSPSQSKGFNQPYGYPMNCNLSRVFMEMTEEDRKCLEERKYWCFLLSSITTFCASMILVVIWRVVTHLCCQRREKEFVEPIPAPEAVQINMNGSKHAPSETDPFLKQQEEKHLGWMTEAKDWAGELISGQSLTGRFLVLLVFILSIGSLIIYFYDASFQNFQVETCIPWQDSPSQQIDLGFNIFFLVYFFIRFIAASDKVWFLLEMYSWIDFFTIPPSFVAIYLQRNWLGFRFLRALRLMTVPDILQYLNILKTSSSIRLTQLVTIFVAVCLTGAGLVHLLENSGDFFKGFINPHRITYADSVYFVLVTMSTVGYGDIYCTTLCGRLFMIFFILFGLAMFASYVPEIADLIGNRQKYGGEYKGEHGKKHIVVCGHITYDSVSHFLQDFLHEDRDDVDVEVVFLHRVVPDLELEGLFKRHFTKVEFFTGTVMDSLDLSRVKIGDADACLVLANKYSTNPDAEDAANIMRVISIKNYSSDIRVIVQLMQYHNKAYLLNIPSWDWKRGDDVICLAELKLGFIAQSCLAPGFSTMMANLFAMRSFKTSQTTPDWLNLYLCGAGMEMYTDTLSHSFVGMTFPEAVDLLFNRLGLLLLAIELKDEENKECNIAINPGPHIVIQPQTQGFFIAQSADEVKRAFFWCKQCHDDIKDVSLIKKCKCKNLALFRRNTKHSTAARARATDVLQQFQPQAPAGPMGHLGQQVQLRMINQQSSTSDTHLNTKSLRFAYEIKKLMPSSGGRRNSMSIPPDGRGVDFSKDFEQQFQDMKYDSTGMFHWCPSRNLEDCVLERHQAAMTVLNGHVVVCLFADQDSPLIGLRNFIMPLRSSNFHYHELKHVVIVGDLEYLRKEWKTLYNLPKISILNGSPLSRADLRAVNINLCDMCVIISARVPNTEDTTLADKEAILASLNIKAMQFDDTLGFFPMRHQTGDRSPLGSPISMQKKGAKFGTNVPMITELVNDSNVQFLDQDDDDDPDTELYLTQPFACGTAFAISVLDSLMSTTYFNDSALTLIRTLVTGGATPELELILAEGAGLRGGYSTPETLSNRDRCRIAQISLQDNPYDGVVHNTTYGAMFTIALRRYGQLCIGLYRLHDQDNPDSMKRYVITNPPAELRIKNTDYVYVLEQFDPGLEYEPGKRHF

Description for C. elegans Slo-1a: Cells were cultured at 37° C. and 5% CO2 in MEMalpha with Gutamax I (Invitrogen, Nr.: 32571), supplemented with 10% (v/v) heat inactivated fetal bovine serum (Invitrogen, Nr.: 10500), G418 (1 mg/ml, Invitrogen, Nr.: 10131). Cells were detached using Accutase (Sigma, Nr.: A6964).
Membrane Potential Measurements
Laboratory compound testing was performed on 384-well microtiter plates (MTPs, Greiner, Nr.: 781092). 8000 cells/well were plated onto 384-well MTPs and cultured for 20 to 24 hours at 37° C. and 5% CO2. After removal of the cell culture medium, the cells were washed once with tyrode (150 mM NaCl, 0.3 mM KCl, 2 mM CaCl2, 1 mM MgCl2, 0.8 mM NaH2PO4, 5 mM Glucose, 28 mM Hepes, pH 7.4) and then loaded with the voltage sensitive dye of the Membrane Potential Assay Kit diluted in tyrode for 1 h at room temperature.
After starting the measurement of fluorescence using a FLIPR Tetra (Molecular Devices, Exc. 510-545 nm, Emm. 565-625 nm), test compounds were added followed by the addition of KCl tyrode (final assay concentration: 70 mM KCl, 2 mM CaCl2, 1 mM MgCl2, 0.8 mM NaH2PO4, 5 mM Glucose, 28 mM Hepes, pH 7.4, including the voltage sensitive dye). The measurement was completed after 7 minutes.

`CC1=C(C(=O)N[C@H]2CCCc3ccccc32)C(C)c2cccc(-c3cc(F)cc(F)c3F)c2O1` (stereo partly drawn) [Example Compound S8b-2, 2,4-Dimethyl-N-[(1S)-1,2,3,4-tetrahydronaphthalen-1-yl]-8-(2,3,5-trifluorophenyl)-4H-chromene-3-carboxamide]: the figures for the EC50 (in test [1]; in test [2]; on C. elegans Slo-1a) were 1.26 µg/mL (≈ 2.72 µM), 0.08 µg/mL (≈ 0.173 µM) and over 50.1 µM, respectively.
